Assay results taken from the supplement of paper PMC10307832.

What follows are cell lines tested with CCOC(=O)CCNc1cc(N2CCc3ccccc3CC2)nc(-c2ccccn2)n1 [GSK-J4] + COc1cccc2cc(-c3nc([C@H]4CC[C@H](C(=O)O)CC4)n4ncnc(N)c34)[nH]c12 [OSI-027] (partner 0.5 µM) (assay: relative viability (nuclei count vs DMSO), 5 days (fraction); higher = more cells survive). Settings: first compound 50 µM.
Method in brief: (§1)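 Cells from lung cancer lines were seeded into 1536-well plates and, one day later, dosed by pin tool. Treatments were either a single drug or a fixed dose of an anchor drug with five library-drug doses (not always all listed) in √10 steps. After 5 days, nuclei were stained in a one-step fixation (final 0.05% Triton X-100, 1% formaldehyde, 1 ug/ml Hoechst) and counted on 4× images, and relative viability is the treated-to-vehicle nuclei ratio, as the median of duplicate plates.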
For NCI-H650, the relative viability was 0.294.
LK-2 was tested, and the relative viability was 0.19.
NCI-H2228 was tested, and the relative viability was 0.459.
NCI-H2342 gave a relative viability of 0.699.
NCI-H1944 gave a relative viability of 0.355.
HARA gave a relative viability of 0.219.
Cell Line COR-L23 has a relative viability of 0.625.
In the case of LCLC-103H, the relative viability is reported as 0.326.
With LXF-289 the relative viability was 0.52.
NCI-H358 was tested, and the relative viability was 0.617.
Work on NCI-H322M yielded a relative viability of 0.49.
LC-2-ad gave a relative viability of 0.528.
Cell Line HCC-827 has a relative viability of 0.787.
NCI-H1648 showed a relative viability of 0.23.
Work on NCI-H596 yielded a relative viability of 0.597.
Work on NCI-H1563 yielded a relative viability of 0.748.

Each cell line was assayed with CCOC(=O)CCNc1cc(N2CCc3ccccc3CC2)nc(-c2ccccn2)n1 [GSK-J4] + CC(=O)c1c(C)c2cnc(Nc3ccc(N4CCNCC4)cn3)nc2n(C2CCCC2)c1=O [Palbociclib] (partner 0.5 µM) in the same assay as above. Settings: first compound 0.5 µM.
Method in brief: as §1
In the case of NCI-H522, the relative viability is reported as 1.22.
Cell Line PC-14 has a relative viability of 0.471.
Cell Line NCI-H1666 has a relative viability of 0.685.
With EKVX the relative viability was 0.352.
With NCI-H1755 the relative viability was 0.43.
In the case of NCI-H2023, the relative viability is reported as 0.317.
For HCC-78, the relative viability was 0.498.
SK-LU-1 showed a relative viability of 0.362.
For PC-3 [JPC-3], the relative viability was 0.499.
LOU-NH91 was tested, and the relative viability was 0.51.
Cell Line NCI-H647 has a relative viability of 0.404.
Work on NCI-H23 yielded a relative viability of 0.483.
Cell Line EPLC-272H has a relative viability of 0.342.
For NCI-H2126, the relative viability was 0.374.
Work on ChaGo-K-1 yielded a relative viability of 0.934.
Cell Line HCC-44 has a relative viability of 0.933.
In the case of NCI-H1734, the relative viability is reported as 0.332.
With NCI-H650 the relative viability was 0.309.
LK-2 showed a relative viability of 0.765.
For NCI-H2228, the relative viability was 0.672.
NCI-H2342 was tested, and the relative viability was 0.646.
NCI-H1944 showed a relative viability of 0.378.
HARA showed a relative viability of 0.242.
COR-L23 showed a relative viability of 0.274.
LCLC-103H showed a relative viability of 0.447.
LXF-289 gave a relative viability of 0.588.
Cell Line NCI-H358 has a relative viability of 0.139.
In the case of NCI-H322M, the relative viability is reported as 0.493.
LC-2-ad gave a relative viability of 0.438.
With HCC-827 the relative viability was 0.539.
Work on NCI-H1648 yielded a relative viability of 0.293.

Same assay, conditions: first compound 1.581 µM
For NCI-H522, the relative viability was 0.953.
PC-14 was tested, and the relative viability was 0.624.
NCI-H1666 showed a relative viability of 0.561.
For NCI-H1755, the relative viability was 0.336.
NCI-H2023 was tested, and the relative viability was 0.371.
SK-LU-1 was tested, and the relative viability was 0.421.
In the case of PC-3 [JPC-3], the relative viability is reported as 0.511.
LOU-NH91 was tested, and the relative viability was 0.468.
In the case of NCI-H647, the relative viability is reported as 0.348.
With NCI-H23 the relative viability was 0.398.
For EPLC-272H, the relative viability was 0.327.
In the case of NCI-H2126, the relative viability is reported as 0.397.
HCC-44 was tested, and the relative viability was 0.916.
For NCI-H1734, the relative viability was 0.318.
NCI-H650 gave a relative viability of 0.283.
Cell Line LK-2 has a relative viability of 0.652.
Cell Line NCI-H2228 has a relative viability of 0.765.
Cell Line NCI-H2342 has a relative viability of 0.48.
NCI-H1944 gave a relative viability of 0.334.
HARA was tested, and the relative viability was 0.247.
COR-L23 gave a relative viability of 0.233.
LCLC-103H was tested, and the relative viability was 0.36.
Work on LXF-289 yielded a relative viability of 0.546.
With NCI-H322M the relative viability was 0.446.
For LC-2-ad, the relative viability was 0.404.
With HCC-827 the relative viability was 0.46.

Same assay, conditions: first compound 5 µM
PC-14 showed a relative viability of 0.454.
Work on NCI-H1666 yielded a relative viability of 0.59.
For EKVX, the relative viability was 0.365.
NCI-H1755 was tested, and the relative viability was 0.456.
NCI-H2023 showed a relative viability of 0.385.
Work on HCC-78 yielded a relative viability of 0.48.
Cell Line SK-LU-1 has a relative viability of 0.346.
With PC-3 [JPC-3] the relative viability was 0.512.
LOU-NH91 showed a relative viability of 0.493.
With NCI-H647 the relative viability was 0.358.
NCI-H23 gave a relative viability of 0.48.
For EPLC-272H, the relative viability was 0.371.
Work on NCI-H2126 yielded a relative viability of 0.356.
For ChaGo-K-1, the relative viability was 0.967.
In the case of HCC-44, the relative viability is reported as 0.989.
Work on NCI-H1734 yielded a relative viability of 0.346.
In the case of LK-2, the relative viability is reported as 0.85.
With NCI-H2228 the relative viability was 0.817.
With NCI-H2342 the relative viability was 0.596.
HARA gave a relative viability of 0.23.
LCLC-103H gave a relative viability of 0.455.
Cell Line LXF-289 has a relative viability of 0.58.
NCI-H358 showed a relative viability of 0.154.
NCI-H322M gave a relative viability of 0.497.
For LC-2-ad, the relative viability was 0.447.
For HCC-827, the relative viability was 0.543.
NCI-H1648 was tested, and the relative viability was 0.358.

Same assay, conditions: first compound 15.81 µM
NCI-H522 showed a relative viability of 0.976.
In the case of PC-14, the relative viability is reported as 0.518.
With NCI-H1666 the relative viability was 0.627.
In the case of EKVX, the relative viability is reported as 0.352.
Cell Line NCI-H1755 has a relative viability of 0.447.
NCI-H2023 showed a relative viability of 0.41.
Cell Line HCC-78 has a relative viability of 0.435.
In the case of SK-LU-1, the relative viability is reported as 0.336.
In the case of PC-3 [JPC-3], the relative viability is reported as 0.497.
Work on LOU-NH91 yielded a relative viability of 0.507.
In the case of NCI-H647, the relative viability is reported as 0.411.
NCI-H23 showed a relative viability of 0.375.
EPLC-272H was tested, and the relative viability was 0.309.
For NCI-H2126, the relative viability was 0.333.
ChaGo-K-1 showed a relative viability of 0.889.
HCC-44 showed a relative viability of 0.979.
For NCI-H1734, the relative viability was 0.335.
In the case of NCI-H650, the relative viability is reported as 0.255.
Cell Line LK-2 has a relative viability of 0.683.
For NCI-H2228, the relative viability was 0.784.
Work on NCI-H2342 yielded a relative viability of 0.507.
NCI-H1944 gave a relative viability of 0.274.
HARA showed a relative viability of 0.234.
For COR-L23, the relative viability was 0.251.
Work on LCLC-103H yielded a relative viability of 0.449.
LXF-289 gave a relative viability of 0.555.
NCI-H358 gave a relative viability of 0.104.
For NCI-H322M, the relative viability was 0.435.
With LC-2-ad the relative viability was 0.49.
HCC-827 gave a relative viability of 0.431.

Same assay, conditions: first compound 50 µM
NCI-H522 was tested, and the relative viability was 0.622.
PC-14 was tested, and the relative viability was 0.544.
For NCI-H1666, the relative viability was 0.708.
In the case of EKVX, the relative viability is reported as 0.344.
With NCI-H1755 the relative viability was 0.408.
NCI-H2023 gave a relative viability of 0.435.
In the case of HCC-78, the relative viability is reported as 0.486.
SK-LU-1 showed a relative viability of 0.295.
PC-3 [JPC-3] gave a relative viability of 0.514.
LOU-NH91 showed a relative viability of 0.46.
Work on NCI-H647 yielded a relative viability of 0.471.
NCI-H23 was tested, and the relative viability was 0.42.
Work on EPLC-272H yielded a relative viability of 0.33.
NCI-H2126 gave a relative viability of 0.358.
Work on ChaGo-K-1 yielded a relative viability of 0.845.
HCC-44 was tested, and the relative viability was 1.03.
Cell Line NCI-H1734 has a relative viability of 0.281.
Cell Line NCI-H650 has a relative viability of 0.239.
Work on LK-2 yielded a relative viability of 0.506.
In the case of NCI-H2228, the relative viability is reported as 0.722.
NCI-H2342 was tested, and the relative viability was 0.678.
In the case of NCI-H1944, the relative viability is reported as 0.342.
HARA gave a relative viability of 0.3.
With COR-L23 the relative viability was 0.258.
LCLC-103H was tested, and the relative viability was 0.49.
Work on LXF-289 yielded a relative viability of 0.533.
In the case of NCI-H358, the relative viability is reported as 0.138.
In the case of NCI-H322M, the relative viability is reported as 0.538.
LC-2-ad showed a relative viability of 0.47.
Cell Line HCC-827 has a relative viability of 0.411.
NCI-H1648 showed a relative viability of 0.3.
